In general, inhibition refers to the change of the read-out against control, counted positive when it falls.

Series [1] has as its target Transcription initiation factor TFIID subunit 1-like (Homo sapiens) (UniProt Q8IZX4). The experiment in a line: Inhibition of human TAF1L (1428 to end residues) using RRRFRPASPLRGPPK as substrate measured after 120 mins in presence of [gamma33P]ATP by scintillation counting method. The arrangement: scale not given: the % may be the effect or the level left.
Series [2] deals with Serine/threonine-protein kinase TAO1 (Homo sapiens) (UniProt Q7L7X3). The experiment in a line: Inhibition of human TAO1 (1 to 327 residues) using myelin basic protein as substrate measured after 40 mins in presence of [gamma33P]ATP by scintillation counting method. The arrangement: scale not given: the % may be the effect or the level left.
The test system of series [3] is Epidermal growth factor receptor (Homo sapiens), P00533 [L858R,T790M]. The experiment in a line: Inhibition of recombinant human EGFR T790M/L858R mutant (696 to end residues) assessed as residual activity at 10 uM using GGMEDIYFEFMGGKKK as substrate measured after 40 mins in presence of [gamma33P]ATP by scintillation counting method.
In series [4] the target is Ephrin type-A receptor 2 (Homo sapiens) (UniProt P29317). The experiment in a line: Inhibition of recombinant human EphA2 (596 to 900 residues) assessed as residual activity at 10 uM using poly(Glu, Tyr) 4:1 as substrate measured after 40 mins in presence of [gamma33P]ATP by scintillation counting method.
Sequence of Ephrin type-A receptor 2 (Homo sapiens) (P29317 whole entry, the tested form may be a part): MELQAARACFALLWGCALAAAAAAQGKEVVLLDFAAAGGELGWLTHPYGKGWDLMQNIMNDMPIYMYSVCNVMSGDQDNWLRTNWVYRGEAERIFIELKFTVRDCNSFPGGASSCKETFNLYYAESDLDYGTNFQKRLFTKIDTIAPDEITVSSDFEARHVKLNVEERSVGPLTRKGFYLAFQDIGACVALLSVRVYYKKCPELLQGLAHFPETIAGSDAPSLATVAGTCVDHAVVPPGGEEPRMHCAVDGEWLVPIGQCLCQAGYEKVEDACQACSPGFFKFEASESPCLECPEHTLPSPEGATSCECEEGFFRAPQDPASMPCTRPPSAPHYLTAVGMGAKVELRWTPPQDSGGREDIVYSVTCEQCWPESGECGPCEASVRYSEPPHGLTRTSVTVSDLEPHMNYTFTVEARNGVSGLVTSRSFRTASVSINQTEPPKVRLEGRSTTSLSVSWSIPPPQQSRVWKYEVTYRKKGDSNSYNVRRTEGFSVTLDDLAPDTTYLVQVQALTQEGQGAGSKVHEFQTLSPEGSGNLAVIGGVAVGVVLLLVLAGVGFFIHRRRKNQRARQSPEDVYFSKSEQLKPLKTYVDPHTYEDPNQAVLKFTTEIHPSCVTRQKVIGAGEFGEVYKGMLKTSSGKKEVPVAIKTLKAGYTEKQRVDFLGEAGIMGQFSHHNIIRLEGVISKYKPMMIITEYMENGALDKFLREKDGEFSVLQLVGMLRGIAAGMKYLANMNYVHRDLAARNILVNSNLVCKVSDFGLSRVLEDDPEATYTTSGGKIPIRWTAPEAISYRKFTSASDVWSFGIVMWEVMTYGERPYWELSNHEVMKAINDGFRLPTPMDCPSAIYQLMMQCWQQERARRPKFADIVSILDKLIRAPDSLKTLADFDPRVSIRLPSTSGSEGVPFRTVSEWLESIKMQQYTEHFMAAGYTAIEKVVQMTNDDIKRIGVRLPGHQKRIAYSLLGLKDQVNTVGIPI
The target in series [5] is Serine/threonine-protein kinase NLK (Homo sapiens) (UniProt Q9UBE8). The experiment in a line: Inhibition of recombinant human NLK (121 to end residues) assessed as residual activity at 10 uM using myelin basic protein as substrate measured after 40 mins in presence of [gamma33P]ATP by scintillation counting method.
Sequence of Serine/threonine-protein kinase NLK (Homo sapiens) (Q9UBE8 whole entry, the tested form may be a part): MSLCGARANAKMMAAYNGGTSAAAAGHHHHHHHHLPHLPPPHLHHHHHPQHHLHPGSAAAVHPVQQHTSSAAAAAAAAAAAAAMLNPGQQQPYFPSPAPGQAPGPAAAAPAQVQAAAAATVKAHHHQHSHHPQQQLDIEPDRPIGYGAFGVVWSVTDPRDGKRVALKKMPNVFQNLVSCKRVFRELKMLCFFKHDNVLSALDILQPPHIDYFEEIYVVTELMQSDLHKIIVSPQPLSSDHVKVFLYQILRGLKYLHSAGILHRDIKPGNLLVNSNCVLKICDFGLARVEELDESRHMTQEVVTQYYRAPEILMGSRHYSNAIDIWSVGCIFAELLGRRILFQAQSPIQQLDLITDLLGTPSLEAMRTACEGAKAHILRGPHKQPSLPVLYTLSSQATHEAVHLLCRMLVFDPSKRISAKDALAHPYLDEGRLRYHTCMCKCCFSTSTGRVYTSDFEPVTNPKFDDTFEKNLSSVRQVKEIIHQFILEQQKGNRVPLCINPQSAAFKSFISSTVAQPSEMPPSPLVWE
Series [6] concerns the target Serine/threonine-protein kinase 25 (Homo sapiens) (UniProt O00506). The experiment in a line: Inhibition of human STK25 (1 to 308 residues) using RLGRDKYKTLRQIRQ as substrate measured after 40 mins in presence of [gamma33P]ATP by scintillation counting method. The arrangement: scale not given: the % may be the effect or the level left.
In series [7] the test system is Calcium/calmodulin-dependent protein kinase kinase 2 (Homo sapiens), Q96RR4 [T85S]. The experiment in a line: Inhibition of recombinant full-length human CAMKk2 T85S mutant assessed as residual activity at 10 uM using calmodulin as substrate measured after 40 mins in presence of [gamma33P]ATP by scintillation counting method.
Series [8] deals with Citron Rho-interacting kinase (Homo sapiens) (UniProt O14578). The experiment in a line: Inhibition of recombinant human CRIK assessed as residual activity at 10 uM using KKLRRTLSVA as substrate measured after 120 mins in presence of [gamma33P]ATP by scintillation counting method.
Series [9] deals with Tubulin (Homo sapiens) (UniProt P68371+Q9H4B7+P0DPH7+P68366+Q13509+Q71U36+P04350+Q3ZCM7+P07437+P68363+Q9BQE3+Q6PEY2+Q13885+Q9BVA1+Q9BUF5). The experiment in a line: Disruption of microtubule network in human SW620 cells assessed as microtubule disorganization at 50 nM for 18 hrs by FITC/DAPI staining-based confocal microscopic analysis. Format: cell-based.
Series [10] deals with Tyrosine-protein kinase SYK (Homo sapiens) (UniProt P43405). The experiment in a line: Inhibition of recombinant full-length human Syk assessed as residual activity at 10 uM using poly(Glu, Tyr) 4:1 as substrate measured after 120 mins in presence of [gamma33P]ATP by scintillation counting method.
Series [11] in a line: Toxicity in nude BALB/c mouse assessed as change in AST level at 40 to 80 mg/kg, po once daily for 4 weeks measured post-last dose. The settings on record: in vivo, 672 h. Format: organism-based.
Series [12] has as its target Mitogen-activated protein kinase kinase kinase 2 (Homo sapiens) (UniProt Q9Y2U5). The experiment in a line: Inhibition of recombinant full-length human MEKK2 assessed as residual activity at 10 uM using myelin basic protein as substrate measured after 40 mins in presence of [gamma33P]ATP by scintillation counting method.
Series [13] concerns the target Phosphatidylinositol 3-kinase C2 domain-containing subunit gamma (Homo sapiens) (UniProt O75747). The experiment in a line: Inhibition of recombinant human PI3KC2gamma (468 to 1203 residues) assessed as residual activity at 10 uM using phosphatidylinositol as substrate measured after 40 mins by HTRF assay. Background: In TR-FRET formats the signal depends on donor and acceptor labels being close together.

The subject of series [14] is Mast/stem cell growth factor receptor Kit (Homo sapiens), P10721 [D816V]. The experiment in a line: Inhibition of recombinant human c-Kit D816V mutant (544 to end residues) assessed as residual activity at 10 uM using poly(Glu, Tyr) 4:1 as substrate measured after 40 mins in presence of [gamma33P]ATP by scintillation counting method.
Series [15] concerns the target Histone-lysine N-methyltransferase EZH2 (Homo sapiens) (UniProt Q15910). The experiment in a line: Inhibition of EZH2 (unknown origin) at 10 uM relative to control.
A short description of series [16]: Toxicity in nude BALB/c mouse assessed as change in platelet level at 40 to 80 mg/kg, po once daily for 4 weeks measured post-last dose. The settings on record: in vivo, 672 h. Format: organism-based.
Series [17] relates to HCT-116. The experiment in a line: Induction of apoptosis in human HCT116 cells assessed as increase in cleaved caspase9 expression measured after 48 hrs by Western blot analysis. Format: functional, cell-based. For orientation: In western blotting, separated proteins are transferred to a membrane and probed.
The species named for series [18] is Homo sapiens. The experiment in a line: Inhibition of recombinant full-length human PI3K p110alpha/p65alpha (1 to 571 residues) assessed as residual activity at 10 uM using phosphatidylinositol-4, 5-bisphosphate as substrate measured after 40 mins by HTRF assay.
Series [19] addresses cAMP-dependent protein kinase catalytic subunit PRKX (Homo sapiens) (UniProt P51817). The experiment in a line: Inhibition of recombinant full-length human PrKX assessed as residual activity at 10 uM using RRRLSFAEPG as substrate measured after 40 mins in presence of [gamma33P]ATP by scintillation counting method.
Series [20] has as its target Receptor tyrosine-protein kinase erbB-4 (Homo sapiens) (UniProt Q15303). The experiment in a line: Inhibition of recombinant human ErbB4 (706 to 991 residues) assessed as residual activity at 10 uM using poly (Glu, Tyr) 4:1 as substrate measured after 40 mins in presence of [gamma33P]ATP by scintillation counting method.
For series [21], the target named is Mitogen-activated protein kinase 1 (Mus musculus) (UniProt P63085). The experiment in a line: Inhibition of mouse MAPK2 assessed as residual activity at 10 uM.
The test system of series [22] is HCT-116. The experiment in a line: Induction of apoptosis in human HCT116 cells assessed as necrotic cells at 25 nM measured after 48 hrs by Annexin V-FITC/propidium iodide staining-based flow cytometry (reference value: 1.16%). Format: functional.
In series [23] the target is Ephrin type-B receptor 1 (Homo sapiens) (UniProt P54762). The experiment in a line: Inhibition of recombinant human EphB1 (564 to end residues) assessed as residual activity at 10 uM using KVEKIGEGTYGVVYK as substrate measured after 40 mins in presence of [gamma33P]ATP by scintillation counting method.
Series [24] deals with Mast/stem cell growth factor receptor Kit (Homo sapiens), P10721 [V560G]. The experiment in a line: Inhibition of recombinant human c-Kit V560G mutant (544 to end residues) assessed as residual activity at 10 uM using GGMEDIYFEFMGGKKK as substrate measured after 40 mins in presence of [gamma33P]ATP by scintillation counting method.
Sequence of Mast/stem cell growth factor receptor Kit (Homo sapiens), P10721 [V560G] (P10721 whole entry V560G): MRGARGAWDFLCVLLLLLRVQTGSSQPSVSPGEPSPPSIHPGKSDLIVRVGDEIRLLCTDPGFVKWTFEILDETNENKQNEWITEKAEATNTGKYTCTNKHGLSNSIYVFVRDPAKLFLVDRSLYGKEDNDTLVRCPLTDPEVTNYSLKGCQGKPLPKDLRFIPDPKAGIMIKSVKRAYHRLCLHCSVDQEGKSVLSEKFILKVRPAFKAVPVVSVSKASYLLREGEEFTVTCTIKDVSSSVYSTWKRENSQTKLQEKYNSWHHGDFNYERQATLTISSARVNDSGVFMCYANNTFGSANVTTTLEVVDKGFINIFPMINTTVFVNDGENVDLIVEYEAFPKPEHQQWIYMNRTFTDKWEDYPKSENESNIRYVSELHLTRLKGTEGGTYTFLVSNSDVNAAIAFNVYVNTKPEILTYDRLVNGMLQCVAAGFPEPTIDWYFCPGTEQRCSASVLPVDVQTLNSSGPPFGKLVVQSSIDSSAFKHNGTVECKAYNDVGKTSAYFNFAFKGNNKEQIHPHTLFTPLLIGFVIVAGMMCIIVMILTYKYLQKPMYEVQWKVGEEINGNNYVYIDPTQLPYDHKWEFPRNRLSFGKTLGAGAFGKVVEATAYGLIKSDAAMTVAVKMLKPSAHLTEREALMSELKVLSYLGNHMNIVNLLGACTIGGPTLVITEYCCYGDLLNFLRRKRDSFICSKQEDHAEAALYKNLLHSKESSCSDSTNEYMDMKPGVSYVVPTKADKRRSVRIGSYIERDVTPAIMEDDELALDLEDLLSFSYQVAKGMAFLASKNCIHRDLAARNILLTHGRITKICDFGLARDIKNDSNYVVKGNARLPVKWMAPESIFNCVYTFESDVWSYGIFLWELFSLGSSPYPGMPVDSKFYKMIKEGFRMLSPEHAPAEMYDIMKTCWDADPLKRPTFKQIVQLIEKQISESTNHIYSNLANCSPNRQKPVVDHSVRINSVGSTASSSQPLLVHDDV

Activity calls are given as the source filed them. The calls are words filed in the database; no cut-off is given here.

Sequence of Histone-lysine N-methyltransferase EZH2 (Homo sapiens) (Q15910 whole entry, looked up): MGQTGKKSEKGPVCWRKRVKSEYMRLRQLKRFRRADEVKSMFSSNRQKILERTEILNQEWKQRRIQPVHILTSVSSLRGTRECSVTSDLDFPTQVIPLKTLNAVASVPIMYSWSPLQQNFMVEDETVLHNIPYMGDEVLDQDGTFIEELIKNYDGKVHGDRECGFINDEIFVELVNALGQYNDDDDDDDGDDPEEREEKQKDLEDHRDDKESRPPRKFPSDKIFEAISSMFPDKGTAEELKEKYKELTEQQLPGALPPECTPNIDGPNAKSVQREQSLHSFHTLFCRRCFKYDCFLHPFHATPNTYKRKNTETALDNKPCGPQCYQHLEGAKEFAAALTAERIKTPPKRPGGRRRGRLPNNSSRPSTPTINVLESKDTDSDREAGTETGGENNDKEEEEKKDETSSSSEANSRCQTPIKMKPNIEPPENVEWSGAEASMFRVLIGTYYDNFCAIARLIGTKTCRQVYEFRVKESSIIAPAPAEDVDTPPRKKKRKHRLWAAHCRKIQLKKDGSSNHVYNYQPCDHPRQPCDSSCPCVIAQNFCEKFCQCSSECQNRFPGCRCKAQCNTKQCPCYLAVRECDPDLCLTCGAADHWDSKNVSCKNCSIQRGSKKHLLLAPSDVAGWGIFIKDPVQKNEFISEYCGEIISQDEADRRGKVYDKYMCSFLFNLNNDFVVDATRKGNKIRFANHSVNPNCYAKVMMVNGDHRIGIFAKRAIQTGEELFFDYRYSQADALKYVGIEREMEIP
Sequence of Receptor tyrosine-protein kinase erbB-4 (Homo sapiens) (Q15303 whole entry, the tested form may be a part): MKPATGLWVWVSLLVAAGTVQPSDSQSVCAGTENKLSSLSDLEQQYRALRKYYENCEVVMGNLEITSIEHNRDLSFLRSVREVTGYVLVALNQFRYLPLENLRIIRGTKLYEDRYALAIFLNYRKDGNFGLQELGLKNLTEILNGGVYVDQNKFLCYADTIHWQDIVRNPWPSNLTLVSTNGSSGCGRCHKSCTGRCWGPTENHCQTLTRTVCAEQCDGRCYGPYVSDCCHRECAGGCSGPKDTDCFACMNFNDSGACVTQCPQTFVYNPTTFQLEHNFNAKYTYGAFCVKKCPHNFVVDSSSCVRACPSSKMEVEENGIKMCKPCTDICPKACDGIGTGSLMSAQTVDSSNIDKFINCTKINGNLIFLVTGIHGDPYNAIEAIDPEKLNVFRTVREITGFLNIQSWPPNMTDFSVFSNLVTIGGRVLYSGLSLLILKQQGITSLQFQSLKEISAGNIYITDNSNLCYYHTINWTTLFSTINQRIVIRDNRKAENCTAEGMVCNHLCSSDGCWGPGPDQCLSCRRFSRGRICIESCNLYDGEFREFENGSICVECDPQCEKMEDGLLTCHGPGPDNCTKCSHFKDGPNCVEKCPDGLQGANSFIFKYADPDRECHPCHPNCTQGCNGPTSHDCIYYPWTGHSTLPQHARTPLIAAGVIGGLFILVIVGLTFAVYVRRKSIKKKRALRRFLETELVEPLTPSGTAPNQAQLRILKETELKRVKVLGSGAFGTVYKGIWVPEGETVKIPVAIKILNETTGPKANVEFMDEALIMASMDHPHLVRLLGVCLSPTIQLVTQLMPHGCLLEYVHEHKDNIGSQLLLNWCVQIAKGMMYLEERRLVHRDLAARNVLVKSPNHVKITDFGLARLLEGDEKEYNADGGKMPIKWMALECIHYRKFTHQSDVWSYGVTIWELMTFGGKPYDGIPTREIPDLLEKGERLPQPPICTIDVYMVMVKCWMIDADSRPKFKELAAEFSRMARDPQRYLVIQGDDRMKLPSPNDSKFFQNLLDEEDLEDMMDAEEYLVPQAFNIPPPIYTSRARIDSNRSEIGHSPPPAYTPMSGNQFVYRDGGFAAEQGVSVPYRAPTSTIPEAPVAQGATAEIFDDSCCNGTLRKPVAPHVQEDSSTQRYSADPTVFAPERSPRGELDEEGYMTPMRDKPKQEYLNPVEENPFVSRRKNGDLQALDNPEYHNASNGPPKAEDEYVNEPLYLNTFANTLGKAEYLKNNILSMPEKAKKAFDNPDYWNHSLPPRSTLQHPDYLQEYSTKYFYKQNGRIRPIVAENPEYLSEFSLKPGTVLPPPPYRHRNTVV
Sequence of cAMP-dependent protein kinase catalytic subunit PRKX (Homo sapiens) (P51817 whole entry, the tested form may be a part): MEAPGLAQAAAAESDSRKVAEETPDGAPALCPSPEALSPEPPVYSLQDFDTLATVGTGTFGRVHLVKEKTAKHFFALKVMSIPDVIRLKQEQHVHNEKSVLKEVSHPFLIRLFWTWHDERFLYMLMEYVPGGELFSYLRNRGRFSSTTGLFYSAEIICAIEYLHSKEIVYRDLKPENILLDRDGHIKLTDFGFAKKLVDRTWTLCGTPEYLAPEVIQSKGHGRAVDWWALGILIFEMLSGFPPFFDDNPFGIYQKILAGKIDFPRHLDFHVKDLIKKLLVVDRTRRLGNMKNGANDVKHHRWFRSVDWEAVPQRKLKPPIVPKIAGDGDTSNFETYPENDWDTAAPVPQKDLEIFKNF
Sequence of Mast/stem cell growth factor receptor Kit (Homo sapiens), P10721 [D816V] (P10721 whole entry D816V): as the sequence (P10721 whole entry V560G) above, with G560V, D816V counted along it

On to `Cc1cc(C)c(CNc2nc(Cl)nc3c2ncn3C2CCCC2)c(=O)[nH]1`, for which the Activity in series [1] came to 108%; in [2] it was 93.5%; in series [3], 96.5%; in [4] it was 91%; in series [5] it was 93.5%; in series [6], 106%. Further, the Activity is 99.5% in series [7]; 109% in series [8]; 123% in [10]; “Non-Toxic” in series [11]; 104% in [12]; 100% in series [13]. Moreover, the Activity in series [14] is 93%; in [16], “Non-Toxic”; in series [17] it was “Dose-dependent effect”; in series [18] it was 93%; in series [19], 113%; in series [20], 103%. Further, the Activity in series [21] came out at 97.5%; in series [22], 0.846%; in [23] it was 104%; in series [24], 95.5%. Besides, in series [9], the outcome was Active. In addition, the inhibition in series [15] is -9%.

Values taken from ChEMBL document CHEMBL4311992, “Discovery of 3-(((9H-purin-6-yl)amino)methyl)-4,6-dimethylpyridin-2(1H)-one derivatives as novel tubulin polymerization inhibitors for treatment of cancer” (Eur J Med Chem, 2019).
